Experimental findings from ChEMBL document CHEMBL4433219, “EC18 as a Tool To Understand the Role of HCN4 Channels in Mediating Hyperpolarization-Activated Current in Tissues” (ACS Med Chem Lett, 2019) are described below.

Assay [1] deals with Cardiac muscle of left ventricle. Put plainly: Effect on cardiac electrophysiological profile in Mongrel perfused dog heart left ventricular muscle stimulated at basic cycle length of 1000 milliseconds assessed as conduction time at 10 uM measured after 25 mins by glass capillary microelectrode based electrophysiology assay (reference value: 4.8 +/- 0.60 milliseconds). The format is functional, Canis lupus familiaris.

The test system is the same in assay [2]. Put plainly: Effect on cardiac electrophysiological profile in Mongrel perfused dog heart left ventricular muscle stimulated at basic cycle length of 1000 milliseconds assessed as maximum diastolic potential at 1 uM measured after 25 mins by glass capillary microelectrode based electrophysiology assay (reference value: -83.8 +/- 2.28 mV). It counts as functional, Canis lupus familiaris.

The test system is the same in assay [3]. Put plainly: Effect on cardiac electrophysiological profile in Mongrel perfused dog heart left ventricular muscle stimulated at basic cycle length of 1000 milliseconds assessed as action potential time duration at 25% of repolarization at 1 uM measured after 25 mins by glass capillary microelectrode based electrophysiology assay (reference value: 131.7 +/- 13.1 milliseconds). The format is functional, Canis lupus familiaris.

Assay [4] deals with T1, Potassium/sodium hyperpolarization-activated cyclic nucleotide-gated channel 2 (Mus musculus, UniProt O88703).
T1 sequence (O88703 whole entry): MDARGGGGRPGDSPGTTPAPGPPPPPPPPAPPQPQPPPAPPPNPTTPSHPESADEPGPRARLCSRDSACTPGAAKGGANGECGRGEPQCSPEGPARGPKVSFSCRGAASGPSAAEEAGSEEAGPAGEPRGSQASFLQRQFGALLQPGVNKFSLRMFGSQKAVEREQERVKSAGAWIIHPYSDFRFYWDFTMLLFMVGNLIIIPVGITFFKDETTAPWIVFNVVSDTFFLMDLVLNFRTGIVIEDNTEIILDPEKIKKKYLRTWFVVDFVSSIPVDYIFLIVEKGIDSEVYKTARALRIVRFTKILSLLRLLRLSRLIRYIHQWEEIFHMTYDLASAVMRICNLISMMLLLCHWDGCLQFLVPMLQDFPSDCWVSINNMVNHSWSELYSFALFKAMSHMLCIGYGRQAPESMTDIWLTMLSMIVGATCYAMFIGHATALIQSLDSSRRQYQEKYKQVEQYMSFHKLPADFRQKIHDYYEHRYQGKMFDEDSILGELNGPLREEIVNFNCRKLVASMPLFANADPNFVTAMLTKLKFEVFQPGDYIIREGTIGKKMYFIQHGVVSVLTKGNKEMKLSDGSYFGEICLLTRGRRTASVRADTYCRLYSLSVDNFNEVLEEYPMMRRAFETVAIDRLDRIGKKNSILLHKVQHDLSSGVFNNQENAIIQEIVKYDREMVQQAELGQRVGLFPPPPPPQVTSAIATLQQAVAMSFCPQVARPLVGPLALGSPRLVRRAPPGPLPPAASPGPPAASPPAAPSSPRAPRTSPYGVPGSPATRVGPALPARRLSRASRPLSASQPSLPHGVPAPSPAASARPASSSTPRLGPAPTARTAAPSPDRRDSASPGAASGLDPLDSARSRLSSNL
As to the kind of experiment: Inhibition of mouse HCN2 expressed in HEK293 cells assessed as reduction in hyperpolarization activated current at holding potential of -80 mV by patch clamp assay. It counts as cell-based.

Assay [5] has as its system Cardiac muscle of left ventricle. As to the kind of experiment: Effect on cardiac electrophysiological profile in Mongrel perfused dog heart left ventricular muscle stimulated at basic cycle length of 1000 milliseconds assessed as Vmax at 1 uM measured after 25 mins by glass capillary microelectrode based electrophysiology assay (reference value: 244.6 +/- 30.87 V/s). It counts as functional, Canis lupus familiaris.

Assay [6] shares this test system. Put plainly: Effect on cardiac electrophysiological profile in Mongrel perfused dog heart left ventricular muscle stimulated at basic cycle length of 1000 milliseconds assessed as Vmax at 10 uM measured after 25 mins by glass capillary microelectrode based electrophysiology assay (reference value: 244.6 +/- 30.87 V/s). The format is functional, Canis lupus familiaris.

Assay [7] shares this test system. As to the kind of experiment: Effect on cardiac electrophysiological profile in Mongrel perfused dog heart left ventricular muscle stimulated at basic cycle length of 1000 milliseconds assessed as action potential time duration at 75% of repolarization at 1 uM measured after 25 mins by glass capillary microelectrode based electrophysiology assay (reference value: 199.7 +/- 16.87 milliseconds). It counts as functional, Canis lupus familiaris.

Assay [8] addresses T2, Potassium/sodium hyperpolarization-activated cyclic nucleotide-gated channel 4 (Homo sapiens) (UniProt Q9Y3Q4).
T2 sequence (whole entry): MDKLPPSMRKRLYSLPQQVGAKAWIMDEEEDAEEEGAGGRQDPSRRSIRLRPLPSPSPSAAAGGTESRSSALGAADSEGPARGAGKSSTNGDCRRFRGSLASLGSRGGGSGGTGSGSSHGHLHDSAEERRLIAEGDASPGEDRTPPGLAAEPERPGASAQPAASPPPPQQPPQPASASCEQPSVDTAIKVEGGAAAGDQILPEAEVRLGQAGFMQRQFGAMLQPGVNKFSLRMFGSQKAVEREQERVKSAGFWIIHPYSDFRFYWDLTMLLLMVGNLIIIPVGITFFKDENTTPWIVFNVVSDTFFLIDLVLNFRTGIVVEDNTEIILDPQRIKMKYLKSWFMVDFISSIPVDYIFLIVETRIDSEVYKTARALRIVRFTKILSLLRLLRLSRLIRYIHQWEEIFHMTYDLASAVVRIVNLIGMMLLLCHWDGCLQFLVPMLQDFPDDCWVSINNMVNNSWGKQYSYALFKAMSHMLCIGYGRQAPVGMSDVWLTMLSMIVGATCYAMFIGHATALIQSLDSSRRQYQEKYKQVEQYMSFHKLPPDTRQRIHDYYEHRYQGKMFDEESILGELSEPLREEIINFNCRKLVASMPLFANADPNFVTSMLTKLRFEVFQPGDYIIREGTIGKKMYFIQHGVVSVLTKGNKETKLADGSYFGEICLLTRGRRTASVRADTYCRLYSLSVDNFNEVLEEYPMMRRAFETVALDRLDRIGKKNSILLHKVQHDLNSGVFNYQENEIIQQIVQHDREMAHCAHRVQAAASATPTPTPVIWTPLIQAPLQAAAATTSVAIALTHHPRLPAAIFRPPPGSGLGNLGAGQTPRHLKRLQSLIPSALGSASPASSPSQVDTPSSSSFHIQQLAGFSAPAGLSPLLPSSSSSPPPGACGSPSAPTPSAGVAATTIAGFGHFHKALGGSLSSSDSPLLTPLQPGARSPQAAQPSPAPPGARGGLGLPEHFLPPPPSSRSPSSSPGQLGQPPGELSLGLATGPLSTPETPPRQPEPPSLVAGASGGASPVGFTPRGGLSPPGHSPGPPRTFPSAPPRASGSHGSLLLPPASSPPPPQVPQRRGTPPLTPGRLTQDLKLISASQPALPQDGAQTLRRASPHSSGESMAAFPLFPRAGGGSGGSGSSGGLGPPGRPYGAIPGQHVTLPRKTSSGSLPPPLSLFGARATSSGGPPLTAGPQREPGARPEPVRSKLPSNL
As to the kind of experiment: Inhibition of human HCN4 expressed in HEK293 cells assessed as reduction in hyperpolarization activated current at 5 uM at holding potential of -80 mV by patch clamp assay relative to control. The format is cell-based. For orientation: Patch clamp records ionic current or voltage across a cell membrane.

In assay [9] the target is T3, Potassium/sodium hyperpolarization-activated cyclic nucleotide-gated channel 4 (Homo sapiens, UniProt Q9Y3Q4).
T3 sequence (Q9Y3Q4 whole entry): T2 sequence (whole entry)
As to the kind of experiment: Inhibition of human HCN4 expressed in HEK293 cells assessed as reduction in hyperpolarization activated current at holding potential of -80 mV by patch clamp assay. The format is cell-based.

SMILES strings stand for the structures.

Usually EC50 stands for the concentration needed to bring the measured effect to its halfway point. For orientation: inhibition means the share of the control response that was lost under treatment. Turning to `COc1ccc(CCN(C)[C@@H]2CCC[C@H](N3CCc4cc(OC)c(OC)cc4CC3=O)C2)cc1OC` (racemic), the Time in assay [1] is 5 ms; in assay [3], 121.6 ms; in [7], 191.9 ms. Besides, the Activity is recorded as -84 mV in assay [2], 232.9 V/s in assay [5] and 140.6 V/s in assay [6]. Further, the figures for the EC50 in assay [4] and in assay [9] were 19.3 µM and 3.98 µM, respectively. In assay [8], the inhibition came to 59%.
